Test results taken from ChEMBL document CHEMBL1131704, “trans-2,6-,3,6- and 4,6-diaza-5,6,6a,7,8,12b-hexahydro-benzo[c]phenanthrene-10,11- diols as dopamine agonists” (Bioorg Med Chem Lett, 1999).

Key:
D(1A) dopamine receptor [1] = target: T1, D(1A) dopamine receptor (Homo sapiens, UniProt P21728); test: Intrinsic activity relative against Dopamine receptor D1.; type: functional
[2] = target: Dopamine D1 and D2 receptor (Homo sapiens) (UniProt P14416+P21728); test: Ratio of Ki for human dopamine-2(D-2) and dopamine-1(D-1) receptors; type: protein assay
D(1A) dopamine receptor [3] = target: T1, D(1A) dopamine receptor; test: Potency in adenylate cyclase functional assay against Dopamine receptor D1
D(2) dopamine receptor = D(2) dopamine receptor (Homo sapiens, UniProt P14416); test: Binding affinity to human Dopamine receptor D2 by using radioligand [3H]spiperone in LTK cells; type: cell-based
D(1A) dopamine receptor [4] = target: T1, D(1A) dopamine receptor; test: Binding affinity to Dopamine receptor D1 by using radioligand [125I]SCH-23982 in HEK cells; type: cell-based, HEK293

T1 sequence (P21728 whole entry): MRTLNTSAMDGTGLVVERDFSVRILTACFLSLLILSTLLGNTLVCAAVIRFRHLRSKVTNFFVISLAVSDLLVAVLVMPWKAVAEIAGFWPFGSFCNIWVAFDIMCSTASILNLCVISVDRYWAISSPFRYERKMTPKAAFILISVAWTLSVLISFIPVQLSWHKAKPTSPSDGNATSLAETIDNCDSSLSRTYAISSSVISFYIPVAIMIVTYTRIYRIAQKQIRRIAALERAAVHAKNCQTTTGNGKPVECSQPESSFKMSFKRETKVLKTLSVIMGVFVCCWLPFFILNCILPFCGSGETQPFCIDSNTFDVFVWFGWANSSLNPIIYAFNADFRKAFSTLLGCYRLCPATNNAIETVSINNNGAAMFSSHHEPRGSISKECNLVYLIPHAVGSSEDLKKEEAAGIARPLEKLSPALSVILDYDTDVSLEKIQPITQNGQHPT
Sequence of Dopamine D1 and D2 receptor (Homo sapiens) (P14416 whole entry, looked up): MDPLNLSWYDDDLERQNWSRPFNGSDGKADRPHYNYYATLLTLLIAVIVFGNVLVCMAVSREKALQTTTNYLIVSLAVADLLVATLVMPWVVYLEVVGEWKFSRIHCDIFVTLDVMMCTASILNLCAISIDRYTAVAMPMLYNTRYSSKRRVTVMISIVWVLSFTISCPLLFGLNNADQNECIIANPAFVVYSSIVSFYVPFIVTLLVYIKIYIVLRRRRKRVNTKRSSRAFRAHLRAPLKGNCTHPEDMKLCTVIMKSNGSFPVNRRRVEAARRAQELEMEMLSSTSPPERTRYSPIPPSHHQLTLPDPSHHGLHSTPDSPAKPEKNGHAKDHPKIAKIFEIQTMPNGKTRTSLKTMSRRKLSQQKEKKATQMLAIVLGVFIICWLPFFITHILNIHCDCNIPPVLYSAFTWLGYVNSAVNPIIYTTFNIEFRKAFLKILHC
Sequence of Dopamine D1 and D2 receptor (Homo sapiens) (P21728 whole entry, looked up): as the sequence (P21728 whole entry) above
Sequence of D(2) dopamine receptor (P14416 whole entry): as the sequence (P14416 whole entry, looked up) above

Structure (SMILES)	Intrinsic activity (D(1A) dopamine receptor [1]) [%]	Ratio [2]	EC50 (D(1A) dopamine receptor [3]) [µM]	Ki (D(2) dopamine receptor) [µM]	Ki (D(1A) dopamine receptor [4]) [µM]
Oc1cc2c(cc1O)[C@H]1c3cccnc3CN[C@@H]1CC2	125	38	0.0067	2.5	0.065
Cc1cncc2c1CN[C@@H]1CCc3cc(O)c(O)cc3[C@@H]21	75	0.36	0.23	0.4	1.1
Cc1cc2c(nc1C)CN[C@@H]1CCc3cc(O)c(O)cc3[C@@H]21	134	33	0.12	9.1	0.28
Oc1cc2c(cc1O)[C@H]1c3ccncc3CN[C@@H]1CC2	131	31	0.038	4.4	0.14
CCCc1ccc2c(n1)CN[C@@H]1CCc3cc(O)c(O)cc3[C@@H]21	116	10	0.0086	0.45	0.045
Oc1cc2c(cc1O)[C@H]1c3cncc(F)c3CN[C@@H]1CC2	126	2	0.8	0.89	0.39
Cc1cnc2c(c1)[C@@H]1c3cc(O)c(O)cc3CC[C@H]1NC2	156	50	0.11	12	0.24
COc1ccc2c(n1)CN[C@@H]1CCc3cc(O)c(O)cc3[C@@H]21	114	11	0.0088	0.52	0.049
Oc1cc2c(cc1O)[C@H]1c3ccc(F)nc3CN[C@@H]1CC2	141	12	0.018	2.2	0.18
Oc1cc2c(cc1O)[C@H]1c3ccccc3CN[C@@H]1CC2	121	–	–	–	–
CCCc1cc2c(s1)CN[C@@H]1CCc3cc(O)c(O)cc3[C@@H]21	125	14	–	–	–
Oc1cc2c(cc1O)[C@H]1c3cc4c(nc3CN[C@@H]1CC2)CCCC4	136	6	0.063	3.6	0.56
Cc1ccc2c(n1)CN[C@@H]1CCc3cc(O)c(O)cc3[C@@H]21	121	10	0.023	1.4	0.14
Oc1cc2c(cc1O)[C@H]1c3cnccc3CN[C@@H]1CC2	81	1	0.32	1.3	1.1
CCCCc1cnc2c(c1)[C@@H]1c3cc(O)c(O)cc3CC[C@H]1NC2	118	2	0.18	1.9	0.89
